Test results reported in US7304093B2, “Ketone compounds and compositions for cholesterol management and related uses” (Esperion Therapeutics, Inc., priority 2000, dated 2007).

System: primary rat hepatocytes
Assay: Inhibition of lipid synthesis ([1-14C]-acetate incorporation) in primary cultures of rat hepatocytes
Format: cell-based
Conditions: Hepatocyte, 4 h incubation with [1-14C]-acetate, Table 7, ranges: confidence of estimate insufficient to assign a value
Method in brief: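 Monolayer primary hepatocytes from male Sprague-Dawley rats, serum-free overnight, were incubated 4 h with 0, 1, 3, 10, 30, 100 or 300 μM compound and 0.25 μCi [1-14C]-acetate per well. Total lipid synthesis was read as radioactivity in the lipid phase extracted into scintillant.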

`CC(C)(CCCCC(=O)CCCCC(C)(C)C(=O)O)C(=O)O` [Compound 210c, 7-Oxo-2,2,12,12-tetramethyltridecanedioic acid] gave an IC50 of 3 µM.

`CC(C)(CCCCCC(=O)CCCCCC(C)(C)C(=O)O)C(=O)O` [Compound 210g, 2,2,14,14-Tetramethyl-8-oxopentadecanedioic acid] was tested, and the IC50 was 3 µM.

With `CC(C)(CO)CCCCC(=O)CCCCC(C)(C)CO` [Compound 214c, 1,13-Dihydroxy-2,2,12,12-tetramethyltridecan-7-one] the IC50 was 4 µM.
